Data as given in patent US20230085307A1, “PYRIDAZINONE COMPOUND AND HERBICIDE” (NISSAN CHEMICAL CORPORATION, priority 2019, published 2023).

tested on: redroot pigweed; test: Test Example 5: herbicidal effect by foliage application, plastic box (Table 20, symbol N); type: in vivo, redroot pigweed (Amaranthus retroflexus); conditions: foliage application, 320 g/ha, evaluated three weeks after application
Outline: (§1)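 Foliar spray test: emulsion formulation diluted in water to a set application rate, sprayed onto 14-day-old plants raised in diluvial soil at 25° C to 30° C under glass. Both herbicidal effect and crop effect rated visually three weeks later.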

SMILES | herbicidal effect on N: redroot pigweed (criteria 0-5)
CCSc1ccc(-c2sc3ccc(F)cc3c2-c2c(O)c(C)nn(C)c2=O)cc1 [2-244] | 5 (Herbicidal rate of 90% or more (almost completely withered))
CCCC(=O)Oc1c(C)nn(C)c(=O)c1-c1c(-c2ccc(SCC)cc2)sc2ccc(F)cc12 [2-245] | 5 (Herbicidal rate of 90% or more (almost completely withered))

tested on: lambsquarters; test: Test Example 5: herbicidal effect by foliage application, plastic box (Table 20, symbol O); type: in vivo, lambsquarters (Chenopodium album); conditions: foliage application, 320 g/ha, evaluated three weeks after application
Outline: as §1

SMILES | herbicidal effect on O: lambsquarters (criteria 0-5)
CCSc1ccc(-c2sc3ccc(F)cc3c2-c2c(O)c(C)nn(C)c2=O)cc1 [2-244] | 5 (Herbicidal rate of 90% or more (almost completely withered))
CCCC(=O)Oc1c(C)nn(C)c(=O)c1-c1c(-c2ccc(SCC)cc2)sc2ccc(F)cc12 [2-245] | 5 (Herbicidal rate of 90% or more (almost completely withered))

tested on: blackgrass; test: Test Example 4: herbicidal effect by soil treatment (Table 19, symbol J); type: in vivo, blackgrass (Alopecurus myosuroides); conditions: amount of applied herbicide 320 g/ha
Outline: (§2)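 Herbicidal effect was rated 3 weeks after treatment, using the scoring criteria of an earlier test. The compound, formulated as an emulsion and diluted in water to a set herbicide amount, had been sprayed uniformly on soil over freshly sown seeds. Growth took place in a greenhouse at 25° C. to 30° C.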

SMILES | herbicidal effect on J: blackgrass
CCSc1ccc(-c2sc3ccc(F)cc3c2-c2c(O)c(C)nn(C)c2=O)cc1 [2-244] | 5 (Herbicidal rate of 90% or more (almost completely withered))
CCCC(=O)Oc1c(C)nn(C)c(=O)c1-c1c(-c2ccc(SCC)cc2)sc2ccc(F)cc12 [2-245] | 3 (Herbicidal rate of 40% or more and less than 70%)

tested on: late watergrass; test: Test Example 1: herbicidal activity, application before weed generation under submerged conditions (Table 16, symbol A); type: in vivo, late watergrass (Echinochloa oryzicola); conditions: 320 g/ha applied herbicide
Outline: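 Submerged Wagner pots (alluvial soil, 4 cm water) sown with weed seeds and planted with 2.5-leaf rice seedlings; emulsifiable concentrate diluted in water applied to water surface on sowing day. Held in greenhouse at 25-30 °C; injury scored 0-5 by herbicidal rate after three weeks.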

SMILES | Herbicidal effect on A: late watergrass (grade 0-5)
CCSc1ccc(-c2sc3ccc(F)cc3c2-c2c(O)c(C)nn(C)c2=O)cc1 [2-244] | 3 (Herbicidal rate of 40% or more and less than 70%)
CCCC(=O)Oc1c(C)nn(C)c(=O)c1-c1c(-c2ccc(SCC)cc2)sc2ccc(F)cc12 [2-245] | 4 (Herbicidal rate of 70% or more and less than 90%)

tested on: Chinese sprangletop; test: Test Example 3: herbicidal effect by foliage application, Wagner pot (Table 18, symbol D); type: in vivo, chinese sprangletop (Leptochloa chinensis); conditions: amount of applied herbicide 320 g/ha
Outline: (§3)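 Plants were sown in alluvial soil held under 0.1–0.5 cm standing water and grown 14 days in a greenhouse at 25–30 °C. An emulsifiable formulation, water-diluted to the set dose, was then sprayed onto the foliage, and effects were scored three weeks later using previously defined criteria.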

SMILES | herbicidal effect on D: Chinese sprangletop
CCSc1ccc(-c2sc3ccc(F)cc3c2-c2c(O)c(C)nn(C)c2=O)cc1 [2-244] | 5 (Herbicidal rate of 90% or more (almost completely withered))
CCCC(=O)Oc1c(C)nn(C)c(=O)c1-c1c(-c2ccc(SCC)cc2)sc2ccc(F)cc12 [2-245] | 4 (Herbicidal rate of 70% or more and less than 90%)

tested on: southern crabgrass; test: Test Example 4: herbicidal effect by soil treatment (Table 19, symbol F); type: in vivo, southern crabgrass (Digitaria ciliaris); conditions: amount of applied herbicide 320 g/ha
Outline: as §2

SMILES | herbicidal effect on F: southern crabgrass
CCSc1ccc(-c2sc3ccc(F)cc3c2-c2c(O)c(C)nn(C)c2=O)cc1 [2-244] | 5 (Herbicidal rate of 90% or more (almost completely withered))
CCCC(=O)Oc1c(C)nn(C)c(=O)c1-c1c(-c2ccc(SCC)cc2)sc2ccc(F)cc12 [2-245] | 4 (Herbicidal rate of 70% or more and less than 90%)

tested on: persian speedwell; test: Test Example 4: herbicidal effect by soil treatment (Table 19, symbol R); type: in vivo, Persian speedwell (Veronica persica); conditions: amount of applied herbicide 320 g/ha
Outline: as §2

SMILES | herbicidal effect on R: persian speedwell
CCSc1ccc(-c2sc3ccc(F)cc3c2-c2c(O)c(C)nn(C)c2=O)cc1 [2-244] | 5 (Herbicidal rate of 90% or more (almost completely withered))
CCCC(=O)Oc1c(C)nn(C)c(=O)c1-c1c(-c2ccc(SCC)cc2)sc2ccc(F)cc12 [2-245] | 5 (Herbicidal rate of 90% or more (almost completely withered))

tested on: velvetleaf; test: Test Example 4: herbicidal effect by soil treatment (Table 19, symbol M); type: in vivo, velvetleaf (Abutilon theophrasti); conditions: amount of applied herbicide 320 g/ha
Outline: as §2

SMILES | herbicidal effect on M: velvetleaf
CCSc1ccc(-c2sc3ccc(F)cc3c2-c2c(O)c(C)nn(C)c2=O)cc1 [2-244] | 2 (Herbicidal rate of 20% or more and less than 40%)
CCCC(=O)Oc1c(C)nn(C)c(=O)c1-c1c(-c2ccc(SCC)cc2)sc2ccc(F)cc12 [2-245] | 2 (Herbicidal rate of 20% or more and less than 40%)

tested on: late watergrass; test: Test Example 2: herbicidal activity, application during weed generation under submerged conditions (Table 17, symbol A); type: in vivo, late watergrass (Echinochloa oryzicola); conditions: AAH 320 g/ha; application during weed generation, submerged conditions
Outline: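 Herbicide emulsion, diluted with water to the chosen amount, is applied onto 4 cm floodwater over alluvial soil where the weeds were co-sown and raised at 25–30° C. Application timing: 1–2 leaves. Assessment: three weeks afterwards.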

SMILES | herbicidal effect rating, A: late watergrass
CCSc1ccc(-c2sc3ccc(F)cc3c2-c2c(O)c(C)nn(C)c2=O)cc1 [2-244] | 5 (Herbicidal rate of 90% or more (almost completely withered))
CCCC(=O)Oc1c(C)nn(C)c(=O)c1-c1c(-c2ccc(SCC)cc2)sc2ccc(F)cc12 [2-245] | 5 (Herbicidal rate of 90% or more (almost completely withered))

tested on: Italian ryegrass; test: Test Example 4: herbicidal effect by soil treatment (Table 19, symbol K); type: in vivo, Italian ryegrass (Lolium multiflorum); conditions: amount of applied herbicide 320 g/ha
Outline: as §2

SMILES | herbicidal effect on K: Italian ryegrass
CCSc1ccc(-c2sc3ccc(F)cc3c2-c2c(O)c(C)nn(C)c2=O)cc1 [2-244] | 4 (Herbicidal rate of 70% or more and less than 90%)
CCCC(=O)Oc1c(C)nn(C)c(=O)c1-c1c(-c2ccc(SCC)cc2)sc2ccc(F)cc12 [2-245] | 4 (Herbicidal rate of 70% or more and less than 90%)

tested on: windgrass; test: Test Example 4: herbicidal effect by soil treatment (Table 19, symbol L); type: in vivo, windgrass (Apera spica-venti); conditions: amount of applied herbicide 320 g/ha
Outline: as §2

SMILES | herbicidal effect on L: windgrass
CCSc1ccc(-c2sc3ccc(F)cc3c2-c2c(O)c(C)nn(C)c2=O)cc1 [2-244] | 3 (Herbicidal rate of 40% or more and less than 70%)
CCCC(=O)Oc1c(C)nn(C)c(=O)c1-c1c(-c2ccc(SCC)cc2)sc2ccc(F)cc12 [2-245] | 3 (Herbicidal rate of 40% or more and less than 70%)

tested on: lambsquarters; test: Test Example 4: herbicidal effect by soil treatment (Table 19, symbol O); type: in vivo, lambsquarters (Chenopodium album); conditions: amount of applied herbicide 320 g/ha
Outline: as §2

SMILES | herbicidal effect on O: lambsquarters
CCSc1ccc(-c2sc3ccc(F)cc3c2-c2c(O)c(C)nn(C)c2=O)cc1 [2-244] | 4 (Herbicidal rate of 70% or more and less than 90%)
CCCC(=O)Oc1c(C)nn(C)c(=O)c1-c1c(-c2ccc(SCC)cc2)sc2ccc(F)cc12 [2-245] | 4 (Herbicidal rate of 70% or more and less than 90%)

tested on: Italian ryegrass; test: Test Example 5: herbicidal effect by foliage application, plastic box (Table 20, symbol K); type: in vivo, Italian ryegrass (Lolium multiflorum); conditions: foliage application, 320 g/ha, evaluated three weeks after application
Outline: as §1

SMILES | herbicidal effect on K: Italian ryegrass (criteria 0-5)
CCSc1ccc(-c2sc3ccc(F)cc3c2-c2c(O)c(C)nn(C)c2=O)cc1 [2-244] | 5 (Herbicidal rate of 90% or more (almost completely withered))
CCCC(=O)Oc1c(C)nn(C)c(=O)c1-c1c(-c2ccc(SCC)cc2)sc2ccc(F)cc12 [2-245] | 5 (Herbicidal rate of 90% or more (almost completely withered))

tested on: barnyard grass; test: Test Example 3: herbicidal effect by foliage application, Wagner pot (Table 18, symbol H); type: in vivo, barnyard grass (Echinochloa crus-galli); conditions: amount of applied herbicide 320 g/ha
Outline: as §3

SMILES | herbicidal effect on H: barnyard grass
CCSc1ccc(-c2sc3ccc(F)cc3c2-c2c(O)c(C)nn(C)c2=O)cc1 [2-244] | 5 (Herbicidal rate of 90% or more (almost completely withered))
CCCC(=O)Oc1c(C)nn(C)c(=O)c1-c1c(-c2ccc(SCC)cc2)sc2ccc(F)cc12 [2-245] | 5 (Herbicidal rate of 90% or more (almost completely withered))

tested on: blackgrass; test: Test Example 5: herbicidal effect by foliage application, plastic box (Table 20, symbol J); type: in vivo, blackgrass (Alopecurus myosuroides); conditions: foliage application, 320 g/ha, evaluated three weeks after application
Outline: as §1

SMILES | herbicidal effect on J: blackgrass (criteria 0-5)
CCSc1ccc(-c2sc3ccc(F)cc3c2-c2c(O)c(C)nn(C)c2=O)cc1 [2-244] | 5 (Herbicidal rate of 90% or more (almost completely withered))
CCCC(=O)Oc1c(C)nn(C)c(=O)c1-c1c(-c2ccc(SCC)cc2)sc2ccc(F)cc12 [2-245] | 4 (Herbicidal rate of 70% or more and less than 90%)

tested on: velvetleaf; test: Test Example 5: herbicidal effect by foliage application, plastic box (Table 20, symbol M); type: in vivo, velvetleaf (Abutilon theophrasti); conditions: foliage application, 320 g/ha, evaluated three weeks after application
Outline: as §1

SMILES | herbicidal effect on M: velvetleaf (criteria 0-5)
CCSc1ccc(-c2sc3ccc(F)cc3c2-c2c(O)c(C)nn(C)c2=O)cc1 [2-244] | 5 (Herbicidal rate of 90% or more (almost completely withered))
CCCC(=O)Oc1c(C)nn(C)c(=O)c1-c1c(-c2ccc(SCC)cc2)sc2ccc(F)cc12 [2-245] | 5 (Herbicidal rate of 90% or more (almost completely withered))
